pEC50: −log10 of the molar value.
How the values were obtained:
[1] = biological target: T1, human FSH receptor (Homo sapiens, UniProt P23945); assay: hFSHRago (CHO luc): agonistic activity at the human FSH receptor expressed in CHO cells, CRE-luciferase reporter; format: cell-based; conditions: CHO cells stably transfected with human FSH receptor and CRE/luciferase reporter; 4 hours of incubation
T1 construct: expressed in transfected cells
T1 sequence (P23945 18-695): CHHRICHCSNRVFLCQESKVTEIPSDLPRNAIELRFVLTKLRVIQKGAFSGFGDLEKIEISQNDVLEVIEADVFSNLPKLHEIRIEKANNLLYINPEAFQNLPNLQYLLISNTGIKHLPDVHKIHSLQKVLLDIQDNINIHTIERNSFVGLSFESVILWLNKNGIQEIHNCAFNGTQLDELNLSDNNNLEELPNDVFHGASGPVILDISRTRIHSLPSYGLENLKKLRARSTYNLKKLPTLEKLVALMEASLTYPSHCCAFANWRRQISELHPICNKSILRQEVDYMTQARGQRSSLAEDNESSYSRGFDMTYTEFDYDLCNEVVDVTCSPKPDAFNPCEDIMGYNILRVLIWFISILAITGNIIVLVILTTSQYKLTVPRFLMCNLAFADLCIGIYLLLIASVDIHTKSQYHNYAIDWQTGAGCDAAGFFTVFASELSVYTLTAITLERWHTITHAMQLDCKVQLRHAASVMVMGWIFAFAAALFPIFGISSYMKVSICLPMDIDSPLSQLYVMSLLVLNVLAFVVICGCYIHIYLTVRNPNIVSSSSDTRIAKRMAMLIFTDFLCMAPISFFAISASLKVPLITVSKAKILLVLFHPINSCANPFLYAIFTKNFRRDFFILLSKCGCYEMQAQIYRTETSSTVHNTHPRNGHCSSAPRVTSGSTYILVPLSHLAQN

Structure (SMILES)	melting point [°C]	pEC50 [1]
COc1cc2c(cc1OC(C)C)-c1c(-c3cccs3)cc(C(=O)N3CC4CC(C3)c3cccc(=O)n3C4)n1CC2 (stereo not drawn) [Example 18, 3-(9-Isopropoxy-8-methoxy-1-thiophen-2-yl-5,6-dihydro-pyrrolo[2,1-α]isoquinoline-3-carbonyl)-1,2,3,4,5,6-hexahydro-1,5-methano-pyrido[1,2-α][1,5]diazocin-8-one]	260	7.43
COc1cc2c(cc1OC(C)C)-c1c(-c3cccs3)cc(C(=O)N3C[C@H]4C[C@@H](NC(C)=O)C[C@H]4C3)n1CC2 [Example 25, N-[-2-(9-isopropoxy-8-methoxy-1-thiophen-2-yl-5,6-dihydro-pyrrolo[2,1-α]isoquinoline-3-carbonyl)-octahydro-cyclopenta[c]pyrrol-5-endo-yl]-acetamide]	106 to 112	7.34
COc1cc2c(cc1OC(C)C)-c1c(-c3cccs3)cc(C(=O)N(C)C(C)(C)CO)n1CC2 [Example 30, 9-Isopropoxy-8-methoxy-1-thiophen-2-yl-5,6-dihydro-pyrrolo[2,1-α]isoquinoline-3-carboxylic acid (2-hydroxy-1,1-dimethyl-ethyl)-methyl-amide]	150 to 152	9.00
COc1cc2c(cc1NC(=O)c1cccnc1)-c1c(-c3cccs3)cc(C(=O)N(C)C(C)(C)C)n1CC2 [Example 102, 8-Methoxy-9-[(pyridine-3-carbonyl)-amino]-1-thiophen-2-yl-5,6-dihydro-pyrrolo[2,1-α]isoquinoline-3-carboxylic acid tert-butyl-methyl-amide]	223 to 224	7.89

Further molecules by rising pEC50 [1], results first:

melting point [°C]	pEC50 [1]	Structure (SMILES)
176 to 177	6.69	COc1cccc(Oc2cc3c(cc2OC)CCn2c(C(=O)N(C)C(C)(C)C)cc(-c4cccs4)c2-3)c1 [Example 74, N-tert-butyl-8-methoxy-9-(3-methoxyphenoxy)-N-methyl-1-(thiophen-2-yl)-5,6-dihydropyrrolo[2,1-α]isoquinoline-3-carboxamide]
207 to 208	7.53	COc1cc2c(cc1OC(C)C)-c1c(-c3cccs3)cc(C(=O)N3CC4CC(C3)C3CCCC(=O)N3C4)n1CC2 (stereo not drawn) [Example 19, 3-(9-Isopropoxy-8-methoxy-1-thiophen-2-yl-5,6-dihydro-pyrrolo[2,1-α]isoquinoline-3-carbonyl)-decahydro-1,5-methano-pyrido[1,2-α][1,5]diazocin-8-one]
164 to 165	7.72	COc1cc2c(cc1Oc1ncccn1)-c1c(-c3cccs3)cc(C(=O)N(C)C(C)(C)C)n1CC2 [Example 76, N-tert-butyl-8-methoxy-N-methyl-9-(pyrimidin-2-yloxy)-1-(thiophen-2-yl)-5,6-dihydro-pyrrolo[2,1-α]isoquinoline-3-carboxamide]
158 to 159	7.79	COc1cc2c(cc1Oc1cccc(F)c1)-c1c(-c3cccs3)cc(C(=O)N(C)C(C)(C)C)n1CC2 [Example 75, 9-(3-Fluoro-phenoxy)-8-methoxy-1-thiophen-2-yl-5,6-dihydro-pyrrolo[2,1-α]isoquinoline-3-carboxylic acid tert-butyl-methyl-amide]
153 to 154	8.22	COc1cc2c(cc1CCC(C)(C)O)-c1c(-c3cccs3)cc(C(=O)N(C)C(C)(C)C)n1CC2 [Example 92, 9-(3-Hydroxy-3-methyl-butyl)-8-methoxy-1-thiophen-2-yl-5,6-dihydro-pyrrolo[2,1-α]isoquinoline-3-carboxylic acid tert-butyl-methyl-amide]
149 to 152	9.00	COc1cc2c(cc1C(=O)Nc1nncs1)-c1c(-c3cccs3)cc(C(=O)N(C)C(C)(C)C)n1CC2 [Example 123, 8-Methoxy-1-thiophen-2-yl-5,6-dihydro-pyrrolo[2,1-α]isoquinoline-3,9-dicarboxylic acid 3-(tert-butyl-methyl-amide) 9-[1,3,4]thiadiazol-2-ylamide]
